Measured values reported in US10093660B2, “Sulfoximine substituted quinazolines for pharmaceutical compositions” (EVOTEC INTERNATIONAL GMBH, priority 2013, dated 2018).

molecular target: MNK2a (Homo sapiens (Human), UniProt Q9HBH9); assay: MNK2a in vitro kinase assay (Assay 2), ADP-Glo; assay type: biochemical; settings: not given
From the text: B. MNK2a In Vitro Kinase Assay (Assay 2)

MNK2a, sequence (Q9HBH9 whole entry): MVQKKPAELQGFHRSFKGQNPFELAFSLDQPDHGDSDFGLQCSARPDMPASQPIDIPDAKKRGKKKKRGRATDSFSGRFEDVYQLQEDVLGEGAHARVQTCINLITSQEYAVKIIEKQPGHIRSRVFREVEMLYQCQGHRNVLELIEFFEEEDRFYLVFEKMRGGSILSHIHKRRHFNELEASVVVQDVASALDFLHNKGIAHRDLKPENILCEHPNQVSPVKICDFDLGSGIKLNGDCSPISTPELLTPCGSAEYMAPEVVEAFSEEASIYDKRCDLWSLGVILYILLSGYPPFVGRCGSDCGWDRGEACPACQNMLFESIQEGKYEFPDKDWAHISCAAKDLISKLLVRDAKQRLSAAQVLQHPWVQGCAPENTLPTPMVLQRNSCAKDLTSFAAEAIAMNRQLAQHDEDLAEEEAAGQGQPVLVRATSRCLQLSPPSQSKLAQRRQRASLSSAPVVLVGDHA

| IC50 | SMILES |
| --- | --- |
| 4 nM | CO[C@@H]1COC[C@@H]1Oc1cc(F)ccc1Nc1ncnc2cc(N=S(C)(C)=O)cc(C)c12 (racemic) [Example 2.9] |

same assay, conditions: assay 2; read-out: MNK2 IC50

| IC50 | SMILES |
| --- | --- |
| 26 nM | COc1cc(N=S2(=O)CCC(O)CC2)cc2ncnc(Nc3ccc(F)cc3O[C@H]3COC[C@H]3O)c12 (mixture of isomers) [Example 9.25] |
| 86 nM | COc1cc(N=S(C)(=O)c2ccncc2)cc2ncnc(Nc3ccc(F)cc3O[C@H]3COC[C@H]3O)c12 (mixture of isomers) [Example 9.27] |
| 6 nM | CO[C@H]1COC[C@H]1Oc1ncccc1Nc1ncnc2cc(N=S3(=O)CCCC3)cc(C)c12 (racemic) [Example 2.2] |
| 3 nM | Cc1cc(N=S(C)(C)=O)cc2ncnc(Nc3cccnc3O[C@H]3COC[C@H]3OCCF)c12 (racemic) [Example 2.26] |
| 10 nM | O=S1(=Nc2cc(F)c3c(Nc4ccc(F)cc4O[C@@H]4COC[C@@H]4O)ncnc3c2)CCC1 (racemic) [Example 2.87] |
| 51 nM | CS(=O)(=Nc1cc(F)c2c(Nc3ccc(F)cc3O[C@@H]3COC[C@@H]3O)ncnc2c1)c1cccnc1 (mixture of isomers) [Example 2.89] |
| 70 nM | CC(C)S(C)(=O)=Nc1cc(F)c2c(Nc3ccc(F)cc3O[C@@H]3COC[C@@H]3O)ncnc2c1 (mixture of isomers) [Example 2.90] |
| 106 nM | CS(=O)(=Nc1cc(F)c2c(Nc3ccc(F)cc3O[C@@H]3COC[C@@H]3O)ncnc2c1)C1CC1 (mixture of isomers) [Example 2.91] |
| 39 nM | O=S1(=Nc2cc(F)c3c(Nc4ccc(F)cc4O[C@@H]4COC[C@@H]4O)ncnc3c2)CCC(O)CC1 (mixture of isomers) [Example 2.94] |
| 54 nM | CS(=O)(=Nc1cc(F)c2c(Nc3ccc(F)cc3O[C@@H]3COC[C@@H]3O)ncnc2c1)c1ccccc1 (mixture of isomers) [Example 2.95] |
| 9 nM | CC1CCS(=O)(=Nc2cc(F)c3c(Nc4ccc(F)cc4O[C@@H]4COC[C@@H]4O)ncnc3c2)C1 (mixture of isomers) [Example 2.96] |
| 6 nM | Cc1cc(N=S(C)(C)=O)cc2ncnc(Nc3ccc(F)cc3O[C@@H]3C[C@@H]4CC[C@H]3O4)c12 (racemic) [Example 2.98] |
| 3 nM | Cc1cc(N=S(C)(C)=O)cc2ncnc(Nc3ccc(F)cc3O[C@H]3C[C@@H]4CO[C@H]3C4)c12 (racemic) [Example 2.99] |
| 25 nM | Cc1cc(N=S(C)(C)=O)cc2ncnc(Nc3ccc(F)cc3O[C@@H]3COC[C@H]3F)c12 (racemic) [Example 2.100] |
| 6 nM | Cc1cc(N=S2(=O)CCCC2)cc2ncnc(Nc3ccc(F)cc3O[C@@H]3COC[C@H]3F)c12 (racemic) [Example 2.101] |
| 2 nM | CS(C)(=O)=Nc1cc(Cl)c2c(Nc3ccc(F)cc3O[C@H]3COC[C@@H]3O)ncnc2c1 [Example 1.8] |
| 21 nM | CS(C)(=O)=Nc1cc(C2CC2)c2c(Nc3ccc(F)cc3O[C@H]3COC[C@@H]3O)ncnc2c1 [Example 1.10] |
| 12 nM | Cc1cc(N=S2(=O)CCCC2)cc2ncnc(Nc3ccc(F)cc3O[C@H]3CN(C)C[C@@H]3O)c12 [Example 2.61] |
| 22 nM | CS(=O)(=Nc1cc(F)c2c(Nc3ccc(F)cc3O[C@H]3COC[C@@H]3O)ncnc2c1)c1cccnc1 (some centres unmarked) [Example 2.69] |
| 20 nM | CS(=O)(=Nc1cc(F)c2c(Nc3ccc(F)cc3O[C@H]3COC[C@@H]3O)ncnc2c1)C1CC1 (some centres unmarked) [Example 2.73] |
| 13 nM | CS(=O)(=Nc1cc(F)c2c(Nc3ccc(F)cc3O[C@H]3COC[C@@H]3O)ncnc2c1)c1ccccc1 (some centres unmarked) [Example 2.86] |
| 32 nM | CS(=O)(=Nc1cc(F)c2c(Nc3ccc(F)cc3O[C@H]3COC[C@@H]3O)ncnc2c1)C1CCOCC1 (some centres unmarked) [Example 2.88] |
| 71 nM | CS(=O)(=Nc1cc(F)c2c(Nc3ccc(F)cc3O[C@H]3COC[C@@H]3O)ncnc2c1)c1ccncc1 (some centres unmarked) [Example 2.97] |
| 1 nM | COc1cc(N=S2(=O)CCC2)cc2ncnc(Nc3ccc(Cl)nc3O[C@H]3COC[C@@H]3O)c12 [Example 9.5] |
| 15 nM | COc1cc(N=S(C)(=O)C2CCOCC2)cc2ncnc(Nc3ccc(F)cc3O[C@H]3COC[C@@H]3O)c12 (some centres unmarked) [Example 9.11] |
